Reference: patent publication US20140030234A1, “METHODS AND COMPOSITIONS FOR MODULATING ISLET BETA CELL DEVELOPMENT” (The Board of Trustees of the Leland Stanford Junior …, priority 2012, published 2014)

Tests used:
NFATc1 [1] = test: ChIP of NFATc1 on isolated human islets; assay type: cell-based; set-up: NFATc1 association at CCNA2, CCND2 and FOXM1 promoter sites: dose or concentration left out as unconfirmed
Experimental: Islets from P20 C57/BL6 mice were isolated (as above) and fixed with 1% formaldehyde for 10 minutes at room temperature. Cross-linking was quenched by the addition of 0.125 M glycine and islets were washed in DPBS. ChIPs were then performed using the EZ-Magna ChIP™ G Chromatin Immunoprecipitation Kit (Millipore), following the manufacturer's protocol. Briefly, following cell and nuclear lysis, islets were sonicated to shear chromatin using a Bioruptor Sonicator (Diagenode) at maximum power; set for 15 seconds ON followed by 45 seconds OFF for a total time of 10 minutes. Precleared chromatin from 200-300 islets was used for each ChIP sample with incubation of 1 to 10 ug of the appropriate antibodies overnight at 4° C. Before IP, 1/10 of the extract was saved for use as the input. […] Resulting chromatin was then amplified using the GenomePlex WGA4 Whole Genome Amplification Kit (Sigma) and quantified using nanodrop. Equal amounts of chromatin DNA were then analyzed by quantitative PCR in the ABI Prism 7500 detection system (Applied Biosystems) using Power SYBR Green PCR Master Mix (Applied Biosystems). […]
Human islet studies. […] Islets were immunostained for insulin and BrdU and β-cell proliferation rate was determined by quantifying the percentage of insulin+ and BrdU^+ cells. A minimum of 50 islets and over 2000 β-cells were scored per condition.

NFATc1 [2] = test: Chromatin immunoprecipitation (ChIP) of NFATc1 in mouse islets; assay type: cell-based
Experimental: Islets from P20 C57/BL6 mice were isolated (as above) and fixed with 1% formaldehyde for 10 minutes at room temperature. Cross-linking was quenched by the addition of 0.125 M glycine and islets were washed in DPBS. ChIPs were then performed using the EZ-Magna ChIP™ G Chromatin Immunoprecipitation Kit (Millipore), following the manufacturer's protocol. Briefly, following cell and nuclear lysis, islets were sonicated to shear chromatin using a Bioruptor Sonicator (Diagenode) at maximum power; set for 15 seconds ON followed by 45 seconds OFF for a total time of 10 minutes. Precleared chromatin from 200-300 islets was used for each ChIP sample with incubation of 1 to 10 ug of the appropriate antibodies overnight at 4° C. Before IP, 1/10 of the extract was saved for use as the input. Antibodies used for IP were mouse monoclonal anti-RNA Polymerase (1 ug, Millipore, 05-623B), rabbit anti-IgG (1 ug, Santa Cruz, sc-2027), and rabbit anti-NFATc1 (5 ug, Imgenex, #IMG-5101A). Resulting chromatin was then amplified using the GenomePlex WGA4 Whole Genome Amplification Kit (Sigma) and quantified using nanodrop. Equal amounts of chromatin DNA were then analyzed by quantitative PCR in the ABI Prism 7500 detection system (Applied Biosystems) using Power SYBR Green PCR Master Mix (Applied Biosystems). […]

[3] = cited from earlier work
neonatal human islets = test: BrdU incorporation, β-cell proliferation in human islets; assay type: cell-based; settings: islets of donor, FK506 vs vehicle (FIG. 6G-H)
Experimental: Human islet studies. Human islet samples were obtained from healthy, non-diabetic organ donors deceased due to acute traumatic or anoxic death and offered by NDR1 (National Diseases Resource Interchange). Islets were isolated by Bottino, R. at the University of Pittsburg, or by Bryant, S, and Thompson A. at the University of Alabama, Birmingham. […] After isolation, islets were shipped directly to our laboratory and were transferred to fresh islet culture medium (RPMI 1640 with 4.5 mM glucose containing 10% FBS and 1% pen/strep). As with mouse islets, islet samples were split and treated with either vehicle (DMSO) or FK506 ([…], LC laboratories) for 72 hours, with medium changes every 24 hours. Islets were then handpicked with dithizone staining and aliquots of 1000 IEQ were spun down and snap frozen for mRNA isolation or crosslinked as described above for ChIP studies. BrdU analysis was performed on the donor batch by treating islets with 50 uM BrdU and chasing for 24 hrs. Afterwards, islets were placed in 2% agarose and processed within paraffin blocks as described above. Islets were immunostained for insulin and BrdU and β-cell proliferation rate was determined by quantifying the percentage of insulin+ and BrdU^+ cells. A minimum of 50 islets and over 2000 β-cells were scored per condition.

human islets = test: qRT-PCR of mRNA in cultured human islets exposed to FK506; assay type: cell-based; settings: 72 hr
Experimental: Quantitative Real-time RT-PCR. Mouse islets were isolated by standard collagenase pancreatic perfusion as previously described (Heit et al. (2006a), supra). Total islet mRNA was then isolated using the RNeasy Microkit (QIAGEN) according to the manufacturer's instructions and RNA amount and purity were assessed by Nanodrop spectrophotometry. Any remaining contaminant DNA was removed by treating samples with 1 unit of RNAse-free DNAse (Fermentas). Next, cDNA was prepared from 750 ng of total islet RNA using the RETROscript kit (Ambion) and analyzed by quantitative real-time PCR (QPCR) using TaqMan Universal PCR Master Mix (ABI) and the ABI Prism 7500 detection system. Human islet studies. Human islet samples were obtained from healthy, non-diabetic organ donors deceased due to acute traumatic or anoxic death and offered by NDR1 (National Diseases Resource Interchange). Islets were isolated by Bottino, R. at the University of Pittsburg, or by Bryant, S, and Thompson A. at the University of Alabama, Birmingham. […] After isolation, islets were shipped directly to our laboratory and were transferred to fresh islet culture medium (RPMI 1640 with 4.5 mM glucose containing 10% FBS and 1% pen/strep). As with mouse islets, islet samples were split and treated with either vehicle (DMSO) or FK506 ([…], LC laboratories) for 72 hours, with medium changes every 24 hours. Islets were then handpicked with dithizone staining and aliquots of 1000 IEQ were spun down and snap frozen for mRNA isolation or crosslinked as described above for ChIP studies. BrdU analysis was performed on the donor batch by treating islets with 50 uM BrdU and chasing for 24 hrs. Afterwards, islets were placed in 2% agarose and processed within paraffin blocks as described above. Islets were immunostained for insulin and BrdU and β-cell proliferation rate was determined by quantifying the percentage of insulin+ and BrdU^+ cells. A minimum of 50 islets and over 2000 β-cells were scored per condition.

cultured human islets = cultured human islets exposed to FK506; cited from earlier work
cultured P10 islets = test: qRT-PCR of mRNA in cultured P10 mouse islets exposed to glucokinase activator with or without FK506; assay type: cell-based
Experimental: (§1) Quantitative Real-time RT-PCR. Mouse islets were isolated by standard collagenase pancreatic perfusion as previously described (Heit et al. (2006a), supra). Total islet mRNA was then isolated using the RNeasy Microkit (QIAGEN) according to the manufacturer's instructions and RNA amount and purity were assessed by Nanodrop spectrophotometry. Any remaining contaminant DNA was removed by treating samples with 1 unit of RNAse-free DNAse (Fermentas). Next, cDNA was prepared from 750 ng of total islet RNA using the RETROscript kit (Ambion) and analyzed by quantitative real-time PCR (QPCR) using TaqMan Universal PCR Master Mix (ABI) and the ABI Prism 7500 detection system. For culture studies, islets harvested from mice of the indicated genotype were placed in standard media (RPMI 1640 with 4.5 mM glucose containing 10% FBS and 1% pen/strep) at 37° C. and 5% CO2. For some experiments islets were maintained in media containing vehicle (DMSO), glucokinase activator (GKA) R0-28-1675 (10 μM; Axon Ligands) and/or FK506 (10 μM; LC Laboratories) for 72 hours, with media changes every 24 hours. Additionally, β-cells from MIP-EGFP islets were isolated using fluorescence-activated cell sorting as previously described (Sugiyama, T., et al. (2007). Conserved markers of fetal pancreatic epithelium permit prospective isolation of islet progenitor cells by FACS. Proc. Natl. Acad. Sci. U.S.A 104, 175-180) and processed as above for analysis by QPCR. Each quantitative analysis was performed in triplicate and islets from 3 to 6 mice of each genotype were independently tested. Data are normalized to β-actin and results are expressed as the mean±S.E.M.

[4] = test system: islets isolated from WT, P20 mice; test: qRT-PCR of mRNA in cultured neonatal mouse islets exposed to FK506; assay type: cell-based
Experimental: as §1

[5] = FK506 10 μM, vs vehicle (FIG. 4A)
[6] = WT P20 mouse islets, FK506 10 μM, 72 hr, vs vehicle (FIG. 3F)

In the case of C=CC[C@@H]1/C=C(\C)C[C@H](C)C[C@H](OC)[C@H]2O[C@@](O)(C(=O)C(=O)N3CCCC[C@H]3C(=O)O[C@H](/C(C)=C/[C@@H]3CC[C@@H](O)[C@H](OC)C3)[C@H](C)[C@@H](O)CC1=O)[C@H](C)C[C@@H]2OC [FK506, tacrolimus], the “NFATc1 binding at CHGA, CHGB, IAPP, and IA2 sites” value (NFATc1 [1]; human islets, FK506 10 μM, 24 hr (FIG. 4B)) is reported as “consistently reduced”, the “NFATc1 association at CCNA2, CCND2 and FOXM1 promoter sites” value (NFATc1 [1]; neonatal human islets) is reported as “FK506-sensitive” and the “NFATc1 binding at ChgA, ChgB and IA2 promoters” value (NFATc1 [2]; WT P20 mouse islets, FK506 24 hr (FIG. 3K)) is reported as “reduced to levels comparable to IgG controls”. The “NFATc1 binding at CcnD2, FoxM1 and CcnA2 promoter sites” value (NFATc1 [2]; WT neonatal mouse islets, FK506 24 hr (FIG. 5J)) was “consistently reduced NFATc1 binding to background levels”, the “incidence of diabetes mellitus” value ([3]; patients administered calcineurin inhibitors) was “high incidence” and the “patients developing diabetes mellitus” value ([3]; patients requiring immunosuppression with calcineurin inhibitors) was 10-30%. For the same molecule, the “reduction of β-cell BrdU incorporation” value (neonatal human islets) was about 3 fold, the “CCNA2, CCND2 and FOXM1 mRNA levels” value (human islets; vs vehicle (FIG. 6F)) was “significantly decreased” and the “islet levels of mRNA encoding HNF4a” value (human islets; [5]) was “unaffected”. The “mRNAs encoding INS, CHGA, CHGB, IAPP, and IA2” value (human islets; [5]) was “reduction”, the DCG numbers (cultured human islets) was “reduced” and the insulin secretion (cultured human islets) was “impaired”. The “GKA induction of CcnA2, CcnD2 and FoxM1 mRNAs” value (cultured P10 islets; P10 islets, simultaneous exposure to FK506, 10 μM each, 72 hr (FIG. 7D)) was “attenuated or blocked”, the “GKA elevation of Insulin 2 (Ins2) levels” value (cultured P10 islets; WT P10 islets, GKA+FK506, 10 μM each, 72 hr (FIG. 7B)) was “blunted” and the “GKA induction of NFATc1 mRNA” value (cultured P10 islets; WT P10 islets, simultaneous exposure to FK506 and GKA, 10 μM each, 72 hr (FIG. 7A)) was “blocked”. For the same molecule, the “GKA increase of ChgA, ChgB, IAPP, and IA2 mRNAs” value (cultured P10 islets; neonatal P10 islets, GKA+FK506, 10 μM each, 72 hr (FIG. 7C)) was “eliminated or significantly reduced”, the “levels of Hnf4a mRNA” value [4, 6] was “remained unchanged” and the “levels of Ins1, Ins2, ChgA, ChgB, IAPP and IA2 mRNA” value [4, 6] was “significantly reduced”. For the same molecule, the “levels of CcnA2, CcnD2 and FoxM1 mRNAs” value ([4]; neonatal WT mouse islets, FK506, 72 hr, vs vehicle (FIG. 5E)) was “significantly decreased”.
